Laboratory results reported in patent US8461360B2, “Process for producing γ -mangostin” (Laila Nutraceuticals, priority 2008, dated 2013).

Key:
[1] = DPPH free radical scavenging activity; format: biochemical; details: methanolic DPPH solution
Experimental: DPPH free radical scavenging activity was measured by the method of Lamaison, et al., (Pharma Acta Helv. 1991; 66:185) based on the reduction of colored methanolic solution of the DPPH. Free radical scavenging ability of each test substances added to the methanolic solution of DPPH was inversely proportional to the difference in initial and final absorption of DPPH solution at […] Antioxidant activity is expressed as the 50% inhibitory concentration (IC50). The reaction mixture contained 1×10^−4 mM methanolic solution of DPPH and various concentrations of the test substances. Percentage inhibition was determined by comparing the absorbance values of test and control tubes. The IC50 values were obtained from the plot drawn of the concentration (μg) verses percentage inhibition.

[2] = Superoxide radical scavenging activity (NBT method); format: biochemical; details: riboflavin/NBT, 560 nm
Experimental: Superoxide radical scavenging activity of test substances was determined by the method of McCord and Fridovich (J. Biol. Chem., 244, 6049, 1969). The assay mixture contained EDTA (6.6 mM containing 3 μg NaCN), riboflavin (2 μM), NBT (50 μM), phosphate buffer (67 mM, pH 7.8) in a final volume of 3 mL and various concentrations of test substances. The tubes were mixed well and optical densities were measured at 560 nm. The tubes were uniformly illuminated with an incandescent lamp for 15 min. and the optical densities were measured again at 560 nm. The percentage inhibition of superoxide radical generation was measured by comparing the absorbance values of control and those of the test substances. The IC50 values were obtained from the plot drawn of the concentration (μg) verses percentage inhibition.

[3] = system: Freund Complete Adjuvant induced arthritis; assay: Freund Complete Adjuvant induced arthritis model, paw edema; format: in vivo, Sprague Dawley rats; details: prednisolone 10 mg/kg body weight for 14 days, positive control; vs CMC control
Experimental: The anti-inflammatory efficacies of α-mangostin and γ-mangostin were evaluated by an in vivo study in Freund Complete Adjuvant induced arthritis model of Sprague Dawley rats. The rats of either sex were randomly selected and divided into […] containing five animals in each group. The treatment group rats were supplemented with 25 mg/kg body weight of α-mangostin or γ-mangostin, or prednisolone (10 mg/kg body weight) for 14 days. The animals of control group received similar volume of 1% CMC only. At the 14 th day, Freund Complete Adjuvant (FCA) was injected subcutaneously in the sub-plantar region of the left hind paw of each animal. At the end of experiment, the animals were sacrificed and liver tissue samples were excised and stored in aliquot at −80° C. Blood samples were collected from each animal at a regular interval and paw volumes were measured by Plethysmography equipment at the day of FCA injection and after 13 days of FCA inoculation. The difference in volume of edema at the day of FCA injection and at 13th day after induction is considered as the inflammatory response. The in vivo anti-inflammatory response of α-mangostin, γ-mangostin and prednisolone was estimated by calculating the percentage of inhibition of paw edema when compared with the CMC supplemented control.

potato 5-lipoxygenase = assay: 5-Lipoxygenase enzyme inhibitory activity; format: biochemical; details: 80 μM linoleic acid, pH 6.3, absorbance 234 nm
Experimental: 5-Lipoxygenase enzyme inhibitory activity was measured using the method of Schewe, et. al. (Adv Enzymol, Vol 58: pp 191-272, 1986), that was modified by Reddanna, et. al., (Methods of Enzymology, Vol 187: pp 268-277, 1990). The assay mixture contained 80 μM linoleic acid and sufficient amount of potato 5-lipoxygenase in 50 mM phosphate buffer (pH 6.3). The reaction was initiated by the addition of enzyme buffer mix to linoleic acid and the enzyme activity was monitored as the increase in absorbance at 234 nm. The reaction was monitored for 120 sec and the inhibitory potential of the test substances was measured by incubating various concentrations of test substances α-mangostin and γ-mangostin two minutes before the addition of linoleic acid. All assays were performed three times. The IC50 values were calculated from the plot drawn of the concentrations of test substances versus percentage inhibition.

[4] = system: aP2 (Adipocyte fatty acid binding protein); assay: Down-regulation of aP2 protein expression in LPS induced THP-1 derived macrophages (Western blot); format: cell-based, human; details: 5 μg/ml pre-treatment 2 h, LPS 100 ng/ml 16 h, normalized with actin
Experimental: Down-regulation of aP2 protein expression by γ-mangostin and α-mangostin was evaluated in a cell based in vitro model. Briefly, equal number of THP-1 monocyte cells were plated in 40 mm tissue culture petri-dishes and the cells were differentiated to macrophages by treatment with 10 nM Phorbol myristate acetate (PMA) for 24 h. The attached cells in the culture dishes were washed with serum free and phenol red free DMEM; and the differentiated macrophage cells were pre-treated for 2 h with 5 μg/ml of either γ-mangostin or α-mangostin or 0.1% DMSO in serum free DMEM supplemented with 2% BSA. Thereafter, the cells were primed with 100 ng/ml of LPS for 16 h to induce the inflammatory response. The 0.1% DMSO treated cells without LPS treatment were considered as vehicle control. […] The protein content was measured by Coomassie blue based Bradford method and equal amount of cellular protein lysates (2 μg) was resolved in 15% SDS-Polyacrylamide gels. […] The aP2 protein expression was specifically detected by chemiluminescent substrate (Pierce, USA); detection of chemiluminescent bands and densitometric analyses were carried out on Kodak 4000 MM image station (supplied by Kodak, USA). The same nitrocellulose blots were stripped and re-probed with anti-actin antibody (Sigma Chemical CO, USA) and actin protein expression was recorded as an indication of equal protein loading in each, lane. […]

IKK = details: Biochem. Pharmacol. reference; cited from earlier work

| Compound | DPPH method IC50 [1] [µg/mL] | NBT method IC50 [2] [µg/mL] | inhibition of paw edema [3] [%] | 5-Lipoxygenase inhibitory activity IC50 values (potato 5-lipoxygenase) [µg/mL] | inhibition of aP2 protein expression [4] | inhibition of IKK activity (IKK) |
| --- | --- | --- | --- | --- | --- | --- |
| O=C1O[C@H]([C@@H](O)CO)C(O)=C1O [Vitamin C] | 3.7 | 123.6 |  |  |  |  |
| C[C@]12C=CC(=O)C=C1CC[C@@H]1[C@@H]2[C@@H](O)C[C@@]2(C)[C@H]1CC[C@]2(O)C(=O)CO [prednisolone] |  |  | 54 |  |  |  |
| COc1c(O)cc2oc3cc(O)c(CC=C(C)C)c(O)c3c(=O)c2c1CC=C(C)C [α-Mangostin, 1,3,6-trihydroxy-7-methoxy-2,8-bis-(3-methyl-but-2-only) -xanthen-9-one] | >100 | 61.8 |  | 2.7 | inhibition of aP2 protein expression |  |
| CC(C)=CCc1c(O)cc2oc3cc(O)c(O)c(CC=C(C)C)c3c(=O)c2c1O [γ-Mangostin, 2,8-bis[(2E)-3-methylbut-2-only)-1,3,6,7-tetrahydroxyxanthen-9-one] | 9.7 | 8.7 |  | 0.5 | more potent inhibitor of aP2 in vitro compared to α-mangostin | directly inhibits IKK activity |
